Tests used:
[1] = system: casting-induced (disuse) atrophy in mice; test: leg casting disuse atrophy model; assay type: in vivo, mouse; settings: male mice
Procedure: Legend: A—physiological saline (control); B—SKF 81297 (0.3 mg/kg)+theophylline; C—SKF 81297 (1.0 mg/kg)+theophylline; D—SKF 81297 (3.0 mg/kg)+theophylline; *−p≦0.05 compared to saline. Following casting of the right hind leg, male mice were injected subcutaneously in the midscapular region twice daily, with SKF 81297 or vehicle control (physiological saline) for ten days at the daily delivered dose indicated. SKF 81297 was co-administered with twice daily intra-peritoneal dosing of the phosphodiesterase inhibitor theophylline (30 mg/kg). On day ten, the tibialis anterior muscle was removed and weighed to determine the degree of atrophy.
Legend: A—physiological saline (control); B—fenoldopam (0.3 mg/kg); C—fenoldopam (1.0 mg/kg); D—fenoldopam (3.0 mg/kg); *−p≦0.05 compared to saline. Following casting of the right hind leg, male mice were injected subcutaneously in the midscapular region twice daily, with fenoldopam or vehicle control (physiological saline) for ten days at the daily delivered dose indicated. On day ten, the medial gastrocnemius muscle was removed and weighed to determine the degree of atrophy.
The leg casting disuse atrophy model involves casting one hind leg of an animal from the knee down through the foot. Typically, muscle mass is reduced 20–40% after ten days of casting. Following casting, test compounds are administered by injection or by continuous infusion via implantation of an osmotic minipump (e.g., Alzet, Palo Alto, Calif.) to determine their effect on leg casting induced skeletal muscle atrophy. At various times following leg casting, the extent of atrophy in the affected muscles is analyzed as described above for the denervation model.

[2] = system: mouse sciatic nerve denervation atrophy model; test: mouse sciatic nerve denervation atrophy model; assay type: in vivo; settings: male mice
Procedure: Legend: A—physiological saline (control); B—SKF 81297 (0.3 mg/kg)+theophylline; C—SKF 81297 (1.0 mg/kg)+theophylline; D—SKF 81297 (3.0 mg/kg)+theophylline. *−p≦0.05 compared to saline. Following denervation of the right sciatic nerve, male mice were injected subcutaneously in the midscapular region twice daily with SKF 81297, at the doses indicated above or vehicle control (physiological saline) for nine days. SKF 81297 was co-administered with twice daily intra-peritoneal dosing of the phosphodiesterase inhibitor theophylline (30 mg/kg). On day nine, the tibialis anterior and medial gastrocnemius muscles were removed and weighed to determine the degree of atrophy.
The sciatic nerve denervation atrophy model involves anesthetizing the animal followed by the surgical removal of a short segment of either the right or left sciatic nerve, e.g., in mice the sciatic nerve is isolated approximately at the midpoint along the femur and a 3–5 mm segment is removed. This denervates the lower hind limb musculature resulting in atrophy of these muscles. Typically, innervation to the biceps femoris is left intact to provide satisfactory motion of the knee for virtually normal ambulation. Typically, in untreated animals, muscle mass of the denervated muscles is reduced 30–50% ten days following denervation. Following denervation, test compounds are administered e.g., by injection or by continuous infusion, e.g., via implantation of an osmotic minipump (e.g., Alzet, Palo Alto, Calif.), to determine their effect on denervation induced skeletal muscle atrophy. At various times following denervation, the animals are euthanized and lower leg muscles are dissected rapidly from both the denervated and nondenervated legs, the muscles, cleaned of tendons and connective tissue, are weighed. The extent of atrophy in the affected muscles is analyzed, for example, by measuring muscle mass, muscle cross-sectional area, myofiber cross-sectional area or contractile protein content.

| Compound | disuse-induced atrophy of the medial gastrocnemius muscle (muscle weight) ([1]; right hind leg casted, s.c. twice daily for ten days, 0.3, 1.0, 3.0 mg/kg, FIG. 3) | denervation-induced atrophy of the tibialis anterior muscle (muscle weight) ([2]; s.c. twice daily for nine days, 0.3, 1.0, 3.0 mg/kg, + theophylline 30 mg/kg i.p. twice daily, FIG. 1A) | denervation-induced atrophy of the medial gastrocnemius muscle (muscle weight) ([2]; s.c. twice daily for nine days, 0.3, 1.0, 3.0 mg/kg, + theophylline 30 mg/kg i.p. twice daily, FIG. 1B) | hypertrophy in the normal (non-denervated) tibialis anterior muscle ([2]; s.c. twice daily for nine days, + theophylline 30 mg/kg i.p., FIG. 1A) | hypertrophy in the normal (non-denervated) medial gastrocnemius muscle ([2]; s.c. twice daily for nine days, + theophylline 30 mg/kg i.p., FIG. 1B) | disuse-induced atrophy of the tibialis anterior muscle (muscle weight) ([1]; right hind leg casted, s.c. twice daily for ten days, 0.3, 1.0, 3.0 mg/kg, + theophylline 30 mg/kg i.p. twice daily, FIG. 2) | hypertrophy of the tibialis anterior muscles of the non-casted leg ([1]; s.c. twice daily for ten days, + theophylline 30 mg/kg i.p., FIG. 2) |
| --- | --- | --- | --- | --- | --- | --- | --- |
| Oc1ccc(C2CNCCc3c2cc(O)c(O)c3Cl)cc1 (stereo not shown) [Fenoldopam, 6-chloro-2,3,4,5-tetrahydro-1-(4-hydroxyphenyl)-[1H]-3-benzazepine-7,8-diol] | inhibits | – | – | – | – | – | – |
| Oc1cc2c(c(Cl)c1O)CCNCC2c1ccccc1 (stereo not shown) [SKF 81297, 6-chloro-7,8-dihydroxyl-1-phenyl-2,3,4,5-tetrahydro-1H-3-benzazepine] | – | inhibits | inhibits | induces hypertrophy | induces hypertrophy | inhibits | statistically significant hypertrophy |

— patent US7067113B2, “Methods for identifying compounds for regulating muscle mass or function using dopamine receptors” (The Procter & Gamble Company, priority 2002, dated 2006)
